Test results as given in US10034871B2, “Salts and compositions useful for treating disease” (REGENTS OF THE UNIVERSITY OF MINNESOTA, priority 2014, dated 2018).

Assays:
[1] = system: insulin sensitivity; settings: 20 patients with type 2 diabetes, intravenous infusion for ten days, measured 24 hours after the last infusion; cited from earlier work
[2] = system: insulin-stimulated glucose disposal; settings: 13 patients with type 2 diabetes, single intravenous infusion; cited from earlier work
[3] = system: insulin sensitivity; settings: 72 patients with type 2 diabetes, oral administration, after four weeks of treatment; cited from earlier work
[4] = molecular target: T1, (Mus musculus, UniProt P32300); experiment: Tail-flick assay, antagonism of analgesia produced by delta opioid agonists (DPDPE, DEL II); assay type: in vivo, ICR-CD1 mice; settings: mice, i.c.v.
T1 construct: by the intracerebroventricular (i.c.v.) route of administration to mice; from tissue; host or cells: living ICR-CD1 mice (central nervous system, i.c.v. dosing)
T1 sequence (P32300 whole entry): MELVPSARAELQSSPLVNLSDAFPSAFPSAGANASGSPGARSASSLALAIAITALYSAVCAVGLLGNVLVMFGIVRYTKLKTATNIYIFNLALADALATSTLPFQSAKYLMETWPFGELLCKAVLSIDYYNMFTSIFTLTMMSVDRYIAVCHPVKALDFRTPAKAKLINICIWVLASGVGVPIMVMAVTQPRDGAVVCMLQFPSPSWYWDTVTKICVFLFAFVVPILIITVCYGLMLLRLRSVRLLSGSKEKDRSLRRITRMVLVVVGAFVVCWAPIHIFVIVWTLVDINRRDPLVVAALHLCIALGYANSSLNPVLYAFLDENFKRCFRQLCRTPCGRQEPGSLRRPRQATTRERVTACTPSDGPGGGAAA
Protocol: (§1) The testing protocol involved the tail-flick assay. For the measurement of the tail-flick latency, ICR-CD1 mice, mice were held gently in one hand with the tail positioned in the apparatus (Tail Flick Analgesia Meter, Columbus Instruments, Columbus, Ohio) for radiant heat stimulus. The tail-flick response was elicited by applying radiant heat to the dorsal side of the tail. The intensity of the heat was set so that the mouse flicks its tail within 2 to 3 seconds. The test latency was measured before treatment of the agonist control, and again after the antagonist treatment at the time of peak agonist activity.
At least three groups of four to ten mice were used for each dose response curve. ED50 values with 95% confidence intervals (C.I.) were computed with GraphPad Prism 4 using nonlinear regression methods. […] Antinociception was quantified as the percent maximal possible effect (% MPE), which is calculated as: % MPE=(Test−Control/10−Control)×100. GNTI.2HCl or GNTI.2LA. […] The data are expressed as bar graphs that indicate the % maximum possible effect (% MPE) of GNTI-.2HCl or GNTI.2LA in antagonizing the analgesia produced by selective kappa opioid agonists (U50488H, Bremazocine, U69593) or delta opioid agonists (DPDPE, DEL II) by the intracerebroventricular (i.c.v.) route of administration to mice.

[5] = molecular target: T2, kappa opioid receptors (Mus musculus, UniProt P33534); experiment: Tail-flick assay, antagonism of analgesia produced by selective kappa opioid agonists (U50488H, Bremazocine, U69593); assay type: in vivo, ICR-CD1 mice; settings: mice, i.c.v.; for antagonism of the analgesia produced by selective kappa opioid agonists (% MPE): agonists U50488H, Bremazocine, U69593
T2 construct: from tissue; host or cells: living ICR-CD1 mice (central nervous system, i.c.v. dosing)
T2 sequence (P33534 whole entry): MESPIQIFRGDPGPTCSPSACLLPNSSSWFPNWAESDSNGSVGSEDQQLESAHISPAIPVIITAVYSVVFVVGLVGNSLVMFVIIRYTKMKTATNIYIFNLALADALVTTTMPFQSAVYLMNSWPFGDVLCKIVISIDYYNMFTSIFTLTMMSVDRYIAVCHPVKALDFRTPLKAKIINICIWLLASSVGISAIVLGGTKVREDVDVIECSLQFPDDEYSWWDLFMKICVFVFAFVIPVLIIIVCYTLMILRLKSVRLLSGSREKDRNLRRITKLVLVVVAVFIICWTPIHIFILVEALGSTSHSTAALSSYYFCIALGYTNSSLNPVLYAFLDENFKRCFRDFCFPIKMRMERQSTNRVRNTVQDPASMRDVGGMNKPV
Protocol: as §1
At least three groups of four to ten mice were used for each dose response curve. ED50 values with 95% confidence intervals (C.I.) were computed with GraphPad Prism 4 using nonlinear regression methods. […] Antinociception was quantified as the percent maximal possible effect (% MPE), which is calculated as: % MPE=(Test−Control/10−Control)×100. GNTI.2HCl or GNTI.2LA. The data for the dihydrochloride salt (Sigma GNTI2HCl) and the di-lipoic acid salt, GNTI.2LA (identified as WY-120) are shown in FIGS. 1 and 2. The data are expressed as bar graphs that indicate the % maximum possible effect (% MPE) of GNTI-.2HCl or GNTI.2LA in antagonizing the analgesia produced by selective kappa opioid agonists (U50488H, Bremazocine, U69593) or delta opioid agonists (DPDPE, DEL II) by the intracerebroventricular (i.c.v.) route of administration to mice.

Structure (SMILES) | insulin sensitivity [1] | improvement of insulin-stimulated glucose disposal compared to a placebo infusion [2] [%] | improvement of insulin sensitivity [3] [%] | antagonism of the analgesia produced by delta opioid agonists (% MPE) [4] | kappa opioid antagonist selectivity compared with GNTI.2HCl ([5]; kappa versus delta agonists) | antagonism of the analgesia produced by selective kappa opioid agonists (% MPE) [5]
O=C(O)CCCCC1CCSS1 (centres unmarked) [LA, 1,2-dithiolane-3-pentanoic acid] | improved insulin sensitivity | 50 | 25 |  |  | 
N=C(N)Nc1ccc2[nH]c3c(c2c1)C[C@@]1(O)C2Cc4ccc(O)c5c4[C@@]1(CCN2CC1CC1)[C@H]3O5 [GNTI.2LA, GNTI Dilipoate] |  |  |  | not significantly affected | not significantly different | selectively antagonize the different kappa agonists
Cl.Cl.NC(N)=Nc1ccc2[nH]c3c(c2c1)C[C@@]1(O)[C@H]2Cc4ccc(O)c5c4[C@@]1(CCN2CC1CC1)[C@H]3O5 [GNTI.2HCI] |  |  |  | not significantly affected |  | selectively antagonize the different kappa agonists
